As a reminder, the melting point is the temperature, or range, at which the solid turns liquid. By IC50 is commonly meant the concentration at which inhibition is half-maximal.

These results are taken from patent US9593108B2, “Compounds and methods for antiviral treatment” (PTC Therapeutics, Inc., priority 2009, dated 2017).

SMILES strings stand for the structures.

Data set [1] relates to HCV replicon RNA (GenBank Accession No. AJ242654). The data set is described as follows: HCV Replicon Assay (replicon RNA reduction and/or Fluc reporter signal). Format: cell-based, Hepatitis C virus. The following applies: Hepatitis C virus, 72 h, replicon-containing cells cultured with test compound for up to 3 days. The method in brief: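 Bicistronic replicon-containing cells cultured with compound for up to 3 days, with interferon as positive control. Inhibition quantified by replicon RNA reduction and/or Fluc reporter signal; IC50 values generally derived from replicon RNA reduction.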

For the molecule `COc1cnc2c(c1)c(C#N)c(-c1ccc(S(=O)(=O)N[C@@H](C)C(F)(F)F)cn1)n2-c1cnccn1` [Cpd 365, 6-[3-cyano-5-methoxy-1-(pyrazin-2-yl)-1H-pyrrolo[2,3-b]pyridin-2-yl]-N-[(2S)-1,1,1-trifluoropropan-2-yl]pyridine-3-sulfonamide], the melting point was in the range of 220 to 225 °C. The same molecule came in with an IC50 in data set [1] of under 500 nM.
The like results for `Cc1cnc2c(c1)c(C#N)c(-c1ccc(S(=O)(=O)N[C@@H](C)C(F)(F)F)cn1)n2-c1ccncc1` [Cpd 368, 6-[3-cyano-5-methyl-1-(pyridin-4-yl)-1H-pyrrolo[2,3-b]pyridin-2-yl]-N-[(2S)-1,1,1-trifluoropropan-2-yl]pyridine-3-sulfonamide] were, in that order, 243 to 245 °C and under 500 nM.
The like results for `CC(C)(C)NS(=O)(=O)c1ccc(-c2c(C#N)c3cc(Cl)cnc3n2C2CCC2)cc1` [Cpd 371, N-tert-butyl-4-(5-chloro-3-cyano-1-cyclobutyl-1H-pyrrolo[2,3-b]pyridin-2-yl)benzenesulfonamide] were, in that order, 244 to 246 °C and under 500 nM.
The like results for `NC(=O)c1c(-c2ccc(S(=O)(=O)NC3(C(F)(F)F)CC3)cc2)n(C2CCC2)c2ncc(C3CC3)cc12` [Cpd 373, 1-cyclobutyl-5-cyclopropyl-2-(4-{[1-(trifluoromethyl)cyclopropyl]sulfamoyl}phenyl)-1H-pyrrolo[2,3-b]pyridine-3-carboxamide] were, in that order, 224 to 229 °C and under 500 nM.
In turn, `CC(C)(C)NS(=O)(=O)c1ccc(-c2c(C(N)=O)c3cc(C4CC4)cnc3n2C2CCC2)nc1` [Cpd 376, 2-[5-(tert-butylsulfamoyl)pyridin-2-yl]-1-cyclobutyl-5-cyclopropyl-1H-pyrrolo[2,3-b]pyridine-3-carboxamide] showed a melting point of 245 to 252 °C. This molecule also registered an IC50 in data set [1] of under 500 nM.
As to `CCc1cnc2c(c1)c(C(N)=O)c(-c1ccc(S(=O)(=O)N[C@@H](C)C(F)(F)F)cn1)n2C1CCC1` [Cpd 377, 1-cyclobutyl-5-ethyl-2-(5-{[(2S)-1,1,1-trifluoropropan-2-yl]sulfamoyl}pyridin-2-yl)-1H-pyrrolo[2,3-b]pyridine-3-carboxamide], the melting point fell in the range of 236 to 240 °C. In data set [1], this molecule displayed an IC50 of under 500 nM.
As for `CCc1cnc2c(c1)c(C(N)=O)c(-c1ccc(S(=O)(=O)NC(C)(C)C(F)(F)F)cc1)n2C1CCC1` [Cpd 378, 1-cyclobutyl-5-ethyl-2-{4-[(1,1,1-trifluoro-2-methylpropan-2-yl)sulfamoyl]phenyl}-1H-pyrrolo[2,3-b]pyridine-3-carboxamide], the melting point fell in the range of 185 to 193 °C. The same molecule yielded an IC50 in data set [1] of under 500 nM.
Molecule `CCc1cnc2c(c1)c(C(N)=O)c(-c1ccc(S(=O)(=O)NC3(C(F)(F)F)CC3)cc1)n2C1CCC1` [Cpd 379, 1-cyclobutyl-5-ethyl-2-(4-{[1-(trifluoromethyl)cyclopropyl]sulfamoyl}phenyl)-1H-pyrrolo[2,3-b]pyridine-3-carboxamide] yielded a melting point of 173 to 179 °C. For the same molecule, the IC50 in data set [1] is under 500 nM.
In the same order, the values of `Cc1cnc2c(c1)c(C#N)c(-c1ccc(S(=O)(=O)N[C@@H](C)C(F)(F)F)cn1)n2-c1cccnn1` [Cpd 383, 6-[3-cyano-5-methyl-1-(pyridazin-3-yl)-1H-pyrrolo[2,3-b]pyridin-2-yl]-N-[(2S)-1,1,1-trifluoropropan-2-yl]pyridine-3-sulfonamide] are 150 to 153 °C and under 500 nM.
The like results for `Cc1cnc2c(c1)c(C#N)c(-c1ccc(S(=O)(=O)N[C@@H](C)C(F)(F)F)cn1)n2-c1cncnc1` [Cpd 384, 6-[3-cyano-5-methyl-1-(pyrimidin-5-yl)-1H-pyrrolo[2,3-b]pyridin-2-yl]-N-[(2S)-1,1,1-trifluoropropan-2-yl]pyridine-3-sulfonamide] were, in that order, 231 to 233 °C and under 500 nM.
In the same order, the values of `CC(C)(C)S(=O)(=O)Nc1ccc(-c2c(C#N)c3cc(Cl)cnc3n2C2CCC2)cc1` [Cpd 385, N-[4-(5-chloro-3-cyano-1-cyclobutyl-1H-pyrrolo[2,3-b]pyridin-2-yl)phenyl]-2-methylpropane-2-sulfonamide] are 240 to 241 °C and under 500 nM.
`CSc1cnc2c(c1)c(C(N)=O)c(-c1ccc(NS(=O)(=O)C(C)(C)C)cc1)n2C1CCC1` [Cpd 387, 2-{4-[(tert-butylsulfonyl)amino]phenyl}-1-cyclobutyl-5-(methylsulfanyl)-1H-pyrrolo[2,3-b]pyridine-3-carboxamide] registered a melting point of 240 to 241 °C. The IC50 in data set [1] is under 500 nM.
The like results for `CC(C)(NS(=O)(=O)c1ccc(-c2c(C(N)=O)c3cccnc3n2C2CCC2)cc1)C(F)(F)F` [Cpd 388, 1-cyclobutyl-2-{4-[(1,1,1-trifluoro-2-methylpropan-2-yl)sulfamoyl]phenyl}-1H-pyrrolo[2,3-b]pyridine-3-carboxamide] were, in that order, 240 to 242 °C and 500 to 2000 nM.
In the same order, the values of `CSc1cnc2c(c1)c(C(N)=O)c(-c1ccc(S(=O)(=O)NC(C)(C)C(F)(F)F)cc1)n2C1CCC1` [Cpd 391, 1-cyclobutyl-5-(methylsulfanyl)-2-{4-[(1,1,1-trifluoro-2-methylpropan-2-yl)sulfamoyl]phenyl}-1H-pyrrolo[2,3-b]pyridine-3-carboxamide] are 204 to 205 °C and under 500 nM.
In turn, `CSc1cnc2c(c1)c(C(N)=O)c(-c1ccc(S(=O)(=O)NC(C)(C)C)cc1)n2C1CCC1` [Cpd 392, 2-[4-(tert-butylsulfamoyl)phenyl]-1-cyclobutyl-5-(methylsulfanyl)-1H-pyrrolo[2,3-b]pyridine-3-carboxamide] came in with a melting point of 224 to 226 °C. The molecule also came in with an IC50 in data set [1] of under 500 nM.
Molecule `CC(C)(C)NS(=O)(=O)c1ccc(-c2c(C(N)=O)c3cc(Cl)cnc3n2C2CCC2)cc1` [Cpd 393, 2-[4-(tert-butylsulfamoyl)phenyl]-5-chloro-1-cyclobutyl-1H-pyrrolo[2,3-b]pyridine-3-carboxamide] showed a melting point of 269 to 270 °C. The same molecule showed an IC50 in data set [1] of under 500 nM.
In the same order, the values of `CC(C)(NS(=O)(=O)c1ccc(-c2c(C#N)c3cc(C(F)(F)F)cnc3n2C2CCC2)nc1)C(F)(F)F` [Cpd 395, 6-[3-cyano-1-cyclobutyl-5-(trifluoromethyl)-1H-pyrrolo[2,3-b]pyridin-2-yl]-N-(1,1,1-trifluoro-2-methylpropan-2-yl)pyridine-3-sulfonamide] are 174 to 176 °C and under 500 nM.
The like results for `N#Cc1c(-c2ccc(S(=O)(=O)NC3(C(F)(F)F)CC3)cn2)n(C2CCC2)c2ncc(C(F)(F)F)cc12` [Cpd 396, 6-[3-cyano-1-cyclobutyl-5-(trifluoromethyl)-1H-pyrrolo[2,3-b]pyridin-2-yl]-N-[1-(trifluoromethyl)cyclopropyl]pyridine-3-sulfonamide] were, in that order, 156 to 158 °C and under 500 nM.
For `CC1(NS(=O)(=O)c2ccc(-c3c(C#N)c4cc(C(F)(F)F)cnc4n3C3CCC3)nc2)CC1` [Cpd 398, 6-[3-cyano-1-cyclobutyl-5-(trifluoromethyl)-1H-pyrrolo[2,3-b]pyridin-2-yl]-N-(1-methylcyclopropyl)pyridine-3-sulfonamide], the melting point lay within 172 to 175 °C. The IC50 in data set [1] was under 500 nM.
Molecule `CC(C)(NS(=O)(=O)c1ccc(-c2c(C(N)=O)c3cc(C(F)(F)F)cnc3n2C2CCC2)nc1)C(F)(F)F` [Cpd 399, 1-cyclobutyl-5-(trifluoromethyl)-2-{5-[(1,1,1-trifluoro-2-methylpropan-2-yl)sulfamoyl]pyridin-2-yl}-1H-pyrrolo[2,3-b]pyridine-3-carboxamide] showed a melting point of 217 to 219 °C. Besides, the IC50 in data set [1] was under 500 nM.
For `NC(=O)c1c(-c2ccc(S(=O)(=O)NC3(C(F)(F)F)CC3)cn2)n(C2CCC2)c2ncc(C(F)(F)F)cc12` [Cpd 400, 1-cyclobutyl-5-(trifluoromethyl)-2-(5-{[1-(trifluoromethyl)cyclopropyl]sulfamoyl}pyridin-2-yl)-1H-pyrrolo[2,3-b]pyridine-3-carboxamide], the melting point is 230 to 235 °C. The molecule also gave an IC50 in data set [1] of under 500 nM.
In the same order, the values of `CC(C)(NS(=O)(=O)c1ccc(-c2c(C(N)=O)c3cc(C(F)(F)F)cnc3n2C2CCC2)cc1)C(F)(F)F` [Cpd 401, 1-cyclobutyl-5-(trifluoromethyl)-2-{4-[(1,1,1-trifluoro-2-methylpropan-2-yl)sulfamoyl]phenyl}-1H-pyrrolo[2,3-b]pyridine-3-carboxamide] are 239 to 241 °C and under 500 nM.
The like results for `NC(=O)c1c(-c2ccc(S(=O)(=O)NC3(C(F)(F)F)CC3)cc2)n(C2CCC2)c2ncc(C(F)(F)F)cc12` [Cpd 402, 1-cyclobutyl-5-(trifluoromethyl)-2-(4-{[1-(trifluoromethyl)cyclopropyl]sulfamoyl}phenyl)-1H-pyrrolo[2,3-b]pyridine-3-carboxamide] were, in that order, 261 to 263 °C and under 500 nM.
`CC(C)(C)NS(=O)(=O)c1ccc(-c2c(C(N)=O)c3cc(C(F)(F)F)cnc3n2C2CCC2)cc1` [Cpd 403, 2-[4-(tert-butylsulfamoyl)phenyl]-1-cyclobutyl-5-(trifluoromethyl)-1H-pyrrolo[2,3-b]pyridine-3-carboxamide] came in with a melting point of 255 to 257 °C. This molecule also gave an IC50 in data set [1] of under 500 nM.
As to `CC(C)(C)S(=O)(=O)Nc1ccc(-c2c(C(N)=O)c3cc(C(F)(F)F)cnc3n2C2CCC2)cc1` [Cpd 404, 2-{4-[(tert-butylsulfonyl)amino]phenyl}-1-cyclobutyl-5-(trifluoromethyl)-1H-pyrrolo[2,3-b]pyridine-3-carboxamide], the melting point is 257 to 259 °C. Besides, in data set [1], the IC50 is under 500 nM.
